US20110274656A1, “PHARMACEUTICAL COMPOSITION FOR PREVENTING OR TREATING HEPATITIS C, COMPRISING THE ROOTS EXTRACT OF PLATYCODON GRANDIFLORUM OR PLATYCODON GRANDIFLORUM SAPONIN COMPONENTS” (B&C Biopharm Co., Ltd., priority 2009, published 2011)

tested on: HCV subgenomic RNA replicon in Huh-7 human hepatoma cell line; assay: HCV RNA replication inhibitory activity in HCV replicon (subgenomic RNA replicon) cell line; assay type: cell-based, HCV-1b Hepatitis C virus; settings: Huh-7 cells harboring HCV-1b subgenomic replicon, 72 hours, RT-PCR
Method: To screen a compound that is capable of inhibiting HCV replication, each compound was added to Huh-7 human hepatoma cell line harboring HCV RNA replicon, followed by culture. Then, expression level of HCV RNA was quantified and its inhibitory activity was measured. HCV replicon used in this invention was derived from HCV-1b Hepatitis C virus gene that was bicistronic replicon composed of HCV IRES, neomycin resistant gene, EMCV (encephalomyocarditis virus) IRES. HCV non-structural proteins were composed of the sequences comprising NS3-NS5B and HCV 3′end. An expression vector harboring HCV replicon proceeded to in vitro transcription, and the obtained HCV replicon was transfected into the Huh-7 cells by electroporation. To select only those cells having HCV replicon, Huh-7 cells were cultured with medium containing the antibiotic G418 (500 μg/ml). The selected cells were cultured with DMEM (Dulbecco's modified Eagles media) containing 10% FBS, non-essential amino acids and 500 μg/ml of G418.
Huh-7 cells harboring HCV subgenomic RNA replicon were cultured overnight in 6 well plate (3×10^5 cells/well), at 37° C. and 5% CO2 with DMEM containing 10% FBS, non-essential amino acids and 500 μg/ml of G418. Medium of each well was replaced with DMEM containing 2% FBS, non-essential amino acids and 500 μg/ml of G418. Test compound was dissolved in DMSO, which was added to each well at different concentrations, followed by culture in a 5% CO2 incubator at 37° C. for 72 hours. Equal amount of DMSO (negative control) and Interferon-α (positive control) were added as controls. Upon completion of the culture, medium of each well was eliminated, followed by washing with 1 ml of PBS. 250 μl/well of trypsin/EDTA was added thereto and cells were separated from the plate and washed with PBS again to eliminate medium. Total RNA was isolated from the cells by using SV total RNA isolation system (Promega corporation), followed by quantification using GeneQuant pro (Amersham bioscience). EC50 against HCV replicon of each compound was investigated by RT-PCR and the result was compared with those of controls. RT-PCR was performed with the primer targeting HCV 1b NS5B region and by AccessQuick™ RT-PCR system (Promega corporation). To obtain more accurate EC50 values, quantitative real-time PCR was performed along with RT-PCR. cDNA was obtained from the isolated RNA by using Reverse transcription system (Promega corporation), followed by quantitative real-time PCR using iQ SYBR Green Supermix (Bio-rad). At the same time, one-step real time RT-PCR was performed using Taqman probe to investigate the inhibitory activity of each compound. At this time, the primer targeting HCV 5′-UTR was used and GAPDH (Glyceraldehyde-3-phosphate dehydrogenase) gene was used as a reference gene for correction. Real time RT-PCR was performed by using iCycler iQ5 system (Bio-rad). The EC50 value was calculated by iCycler iQ5 optical system software (Bio-rad) program to determine the inhibitory activity. HCV replicon inhibitory activity of saponin components of Platycodon grandiflorum, the roots extract of Platycodon grandiflorum and the composition containing the same of the present invention and sapogenin and prosapogenin is shown in Table 7 and Table 8.

Compound | Inhibitory Activity EC50 (HCV RNA replication inhibitory activity of saponin components) [µg/mL]
platycogenic acid A lactone [Compound 16] | 0.4
C[C@@H]1O[C@@H](O[C@H]2[C@H](OC(=O)[C@]34CCC(C)(C)C[C@H]3C3=CC[C@@H]5[C@@]6(C)C[C@H](O)[C@H](O[C@@H]7O[C@H](CO)[C@@H](O)[C@H](O[C@@H]8O[C@H](CO)[C@@H](O)[C@H](O)[C@H]8O)[C@H]7O)[C@@](C)(CO)[C@@H]6CC[C@@]5(C)[C@]3(C)C[C@H]4O)OC[C@H](O)[C@@H]2O)[C@H](O)[C@H](O)[C@H]1O[C@@H]1OC[C@@H](O)[C@H](O[C@@H]2OC[C@](O)(CO)[C@H]2O)[C@H]1O [Compound 4, polygalacin D2] | >10
C[C@@H]1O[C@@H](O[C@H]2[C@H](OC(=O)[C@]34CCC(C)(C)C[C@H]3C3=CC[C@@H]5[C@@]6(C)C[C@H](O)[C@H](O[C@@H]7O[C@H](CO)[C@@H](O)[C@H](O)[C@H]7O)[C@](CO)(C(=O)O)[C@@H]6CC[C@@]5(C)[C@]3(C)C[C@H]4O)OC[C@H](O)[C@@H]2O)[C@H](O)[C@H](O)[C@H]1O[C@@H]1OC[C@@H](O)[C@H](O[C@@H]2OC[C@](O)(CO)[C@H]2O)[C@H]1O [Compound 6, platyconic acid A] | 0.2
COC(=O)C12CCC(C)(C)CC1C1=CCC3C4(C)CC(O)C(OC5OC(CO)C(O)C(OC6OC(CO)C(O)C(O)C6O)C5O)C(CO)(CO)C4CCC3(C)C1(C)CC2O (stereo not shown) [Compound 19, platycodigenin 3-O-laminaribioside 28-methyl ester] | >10
2″-O-acetyl-polygalacin D2 [Compound 12] | 1
C[C@@H]1O[C@@H](O[C@H]2[C@H](OC(=O)[C@]34CCC(C)(C)C[C@H]3C3=CC[C@@H]5[C@@]6(C)C[C@H](O)[C@H](O[C@@H]7O[C@H](CO[C@@H]8O[C@H](CO[C@@H]9O[C@H](CO)[C@@H](O)[C@H](O)[C@H]9O)[C@@H](O)[C@H](O)[C@H]8O)[C@@H](O)[C@H](O)[C@H]7O)C(CO)(CO)[C@@H]6CC[C@@]5(C)[C@]3(C)C[C@H]4O)OC[C@H](O)[C@@H]2O)[C@H](O)[C@H](O)[C@H]1O[C@@H]1OC[C@@H](O)[C@H](O[C@@H]2OC[C@](O)(CO)[C@H]2O)[C@H]1O [Compound 2, platycoside E] | 0.7
CC1OC(OC2C(OC(=O)C34CCC(C)(C)CC3C3=CCC5C6(C)CC(O)C(OC7OC(COC8OC(CO)C(O)C(O)C8O)C(O)C(O)C7O)C(CO)(CO)C6CCC5(C)C3(C)CC4O)OCC(O)C2O)C(O)C(O)C1OC1OCC(O)C(OC2OCC(O)(CO)C2O)C1O (stereo not shown) [Compound 3, platycodin D3] | 0.2
C[C@@H]1O[C@@H](O[C@H]2[C@H](OC(=O)[C@]34CCC(C)(C)C[C@H]3C3=CC[C@@H]5[C@@]6(C)C[C@H](O)[C@H](O[C@@H]7O[C@H](CO[C@@H]8O[C@H](CO[C@@H]9O[C@H](CO)[C@@H](O)[C@H](O)[C@H]9O)[C@@H](O)[C@H](O)[C@H]8O)[C@@H](O)[C@H](O)[C@H]7O)C(CO)(CO)[C@@H]6CC[C@@]5(C)[C@]3(C)C[C@H]4O)OC[C@H](O)[C@@H]2O)[C@H](O)[C@H](O)[C@H]1O[C@@H]1OC[C@@H](O)[C@H](O)[C@H]1O [Compound 1, deapioplatycoside E] | >10
CC1(C)CC[C@]2(C(=O)O)[C@H](O)C[C@]3(C)C(=CC[C@@H]4[C@@]5(C)C[C@H](O)[C@H](O)C(CO)(CO)[C@@H]5CC[C@]43C)[C@@H]2C1 [Compound 14, platycodigenin] | >10
C[C@@H]1O[C@@H](O[C@H]2[C@H](OC(=O)[C@]34CCC(C)(C)C[C@H]3C3=CC[C@@H]5[C@@]6(C)C[C@H](O)[C@H](O[C@@H]7O[C@H](CO)[C@@H](O)[C@H](O)[C@H]7O)C(CO)(CO)[C@@H]6CC[C@@]5(C)[C@]3(C)C[C@H]4O)OC[C@H](O)[C@@H]2O)[C@H](O)[C@H](O)[C@H]1O[C@@H]1OC[C@@H](O)[C@H](O)[C@H]1O [Compound 9, deapioplatycodin D] | 0.2
C[C@@H]1O[C@@H](O[C@H]2[C@H](OC(=O)[C@]34CCC(C)(C)C[C@H]3C3=CC[C@@H]5[C@@]6(C)C[C@H](O)[C@H](O[C@@H]7O[C@H](CO)[C@@H](O)[C@H](O)[C@H]7O)C(CO)(CO)[C@@H]6CC[C@@]5(C)[C@]3(C)C[C@H]4O)OC[C@H](O)[C@@H]2O)[C@H](O)[C@H](O)[C@H]1O[C@@H]1OC[C@@H](O)[C@H](O[C@@H]2OC[C@](O)(CO)[C@H]2O)[C@H]1O [Compound 10, platycodin D] | 0.1
2″-O-acetyl-deapiopolygalacin D2 [Compound 11] | >10
C[C@@H]1O[C@@H](O[C@H]2[C@H](OC(=O)[C@]34CCC(C)(C)C[C@H]3C3=CC[C@@H]5[C@@]6(C)C[C@H](O)[C@H](O[C@@H]7O[C@H](CO)[C@@H](O)[C@H](O[C@@H]8O[C@H](CO)[C@@H](O)[C@H](O)[C@H]8O)[C@H]7O)C(CO)(CO)[C@@H]6CC[C@@]5(C)[C@]3(C)C[C@H]4O)OC[C@H](O)[C@@H]2O)[C@H](O)[C@H](O)[C@H]1O[C@@H]1OC[C@@H](O)[C@H](O[C@@H]2OC[C@](O)(CO)[C@H]2O)[C@H]1O [Compound 8, platycodin D2] | 0.1
C[C@@H]1O[C@@H](O[C@H]2[C@H](OC(=O)[C@]34CCC(C)(C)C[C@H]3C3=CC[C@@H]5[C@@]6(C)C[C@H](O)[C@H](O[C@@H]7O[C@H](CO)[C@@H](O)[C@H](O)[C@H]7O)[C@@](C)(CO)[C@@H]6CC[C@@]5(C)[C@]3(C)C[C@H]4O)OC[C@H](O)[C@@H]2O)[C@H](O)[C@H](O)[C@H]1O[C@@H]1OC[C@@H](O)[C@H](O[C@@H]2OC[C@](O)(CO)[C@H]2O)[C@H]1O [Compound 5, polygalacin D] | 0.8
platyconic acid A methyl ester [Compound 13] | 5
COC(=O)C12CCC(C)(C)CC1C1=CCC3C4(C)CC(O)C(OC5OC(CO)C(O)C(O)C5O)C(CO)(CO)C4CCC3(C)C1(C)CC2O (stereo not shown) [Compound 18, platycodigenin 3-O-glucopyranoside 28-methyl ester] | >10
platycogenic acid A lactone 3-O-glucopyranoside [Compound 17] | 2
CC1(C)CCC2(C(=O)O)C(O)CC3(C)C(=CCC4C5(C)CC(O)C(O)C(C)(CO)C5CCC43C)C2C1 (stereo not shown) [Compound 15, polygalacic acid] | 2
C[C@@H]1O[C@@H](O[C@H]2[C@H](OC(=O)[C@]34CCC(C)(C)C[C@H]3C3=CC[C@@H]5[C@@]6(C)C[C@H](O)[C@H](O[C@@H]7O[C@H](CO)[C@@H](O)[C@H](O[C@@H]8O[C@H](CO)[C@@H](O)[C@H](O)[C@H]8O)[C@H]7O)C(CO)(CO)[C@@H]6CC[C@@]5(C)[C@]3(C)C[C@H]4O)OC[C@H](O)[C@@H]2O)[C@H](O)[C@H](O)[C@H]1O[C@@H]1OC[C@@H](O)[C@H](O)[C@H]1O [Compound 7, deapioplatycodin D2] | 0.2
